“Also recorded” adds a separate entry of the source.
How the values were obtained:
[1] = system: THP-1 cells (DNFB-induced CD54 and CD86 expression); assay: Inhibition of THP-1 maturation induced by the allergen DNFB (anti-allergic activity); type: cell-based, human; conditions: DNFB 8 µM
Protocol: (§1) The human keratinocytes (HaCaT, CLS 300493, Eppelheim, Germany) cell line was cultured with Dulbecco’s Modified Eagle’s Medium (DMEM) (Sigma-Aldrich, St. Louis, MO, USA), supplemented with 10% (v/v) of heat-inactivated fetal bovine serum (FBS), 1% (v/v) antibiotic solution (from a 10,000 U/mL penicillin and 10,000 μg/mL streptomycin stock) (Gibco, Carlsbad, CA, USA), 3.7 g/L sodium bicarbonate, and 1 mM sodium pyruvate (Sigma-Aldrich, St. Louis, MO, USA). The cell culture of keratinocytes was detached with EDTA solution 1X (Sigma-Aldrich, St. Louis, MO, USA) when the cells reached 70–80% confluence in cell culture flasks. The mouse macrophage cell line (RAW 264.7, ATCC TIB-71, Manassas, VA, USA) was cultured in DMEM supplemented with 10% (v/v) non-inactivated FBS, 1% (v/v) antibiotic solution, 1.5 g/L sodium bicarbonate, and 1 mM sodium pyruvate. Macrophages were mechanically detached with a cell scraper and subcultured in (1:10) proportion of cellular suspension to a final volume of DMEM. The human monocytic cell line THP-1 (ATCC® TIB-202™, American Type Culture Collection, Manassas, VA, USA) was cultivated in RPMI 1640 supplemented with 10% inactivated FBS, 25 mM (D)-glucose, 10 mM HEPES, 1 mM sodium pyruvate, 100 U/mL penicillin, and 100 μg/mL streptomycin, and maintained at a cell density of 0.4 × 10^6 cells/mL. Cells were subcultured every 2 or 3 days and maintained in culture for 2–3 months, according to ATCC® instructions.
Following OECD guidelines, researchers utilized the THP-1 human monocyte cell line as a substitute for dendritic cells (DCs) to assess skin sensitization potential. Adapting OECD Test Guideline No. 442E [24], cell density was adjusted to 5.0 × 10^5 cells/mL and allowed to stabilize overnight at 37 °C. Then, 1.5 mL/well of cell suspension was added to a 12-well plate, and solutions of AA, AAG, and AAGS (500 µM) were applied. After 1 h of pre-incubation, a solution of DNFB was added (8 µM), and the cells were further incubated for 24 h. Afterwards, the cells were centrifuged at 300× g for 5 min, the supernatant was discarded, and the cell pellet was washed with PBS containing 1% FBS (2 × 1 mL) and centrifuged. The cell pellet was resuspended in 1 mL of PBS/1% FBS and 200 µL were collected in two microtubes: 100 µL for the unstained (UNST) and 100 µL for the stained (CD5486) conditions. For each stained condition, anti-CD54-APC and anti-CD86-Alexa Fluor 488 (BioLegend, London, UK) were added, and the cells were incubated for 30 min at 4 °C, protected from light. Then, cells were washed twice with 1 mL PBS/1% FBS solution and centrifuged. The cell pellet was further resuspended in 100 µL of PBS and analyzed by flow cytometry using a BD Accuri™ C6 cytometer (San Jose, CA, USA).
(§2) CD86 and CD54 levels were analyzed by flow cytometry using the acquisition channels FL1 and FL4. Mitochondrial O2^− production was measured by flow cytometry using the acquisition channel FL2. The relative fluorescence intensity (RFI) of CD86 and CD54 (THP-1 maturation assay) and MitoSOX (mitochondrial antioxidant activity) in the control and chemical-treated cells, based on the geometric mean fluorescence intensity (MFI), was calculated according to the following equation: RFI=MFI of chemical treated cells−MFI of chemical treated unstained cells/MFI of control treated cells−MFI of control unstained cells ×100
The results of at least three independent experiments were represented as a percentage of the control RFI, which was assumed to be 100%.

[2] = system: RAW264.7 cells (mitochondrial O2− production); assay: Mitochondrial antioxidant activity (MitoSOX, rotenone-induced superoxide); type: cell-based, mouse; conditions: 500 μM; for mitochondrial antioxidant activity: rotenone 20 μM
Protocol: as §1
Mitochondrial superoxide (O2^−) generation was determined using the MitoSOX Red kit, according to the manufacturer’s instructions. Briefly, 5.0 × 10^5 cells/mL were plated in a 12-well plate and incubated for 24 h at 37 °C. The cells were then exposed to the AA, AAG and AAGS solution (500 µM), and after 1 h, rotenone (20 μM) was added, followed by incubation for an additional 5 h. The cells were then carefully detached, transferred to microtubes, and centrifuged at 500× g for 3 min. The cell pellet was washed with HBSS solution (2 × 1 mL), resuspended in PBS solution, and 300 µL was collected in two microtubes for unstained (150 µL) and stained (150 µL) conditions. The stained cells were incubated with 100 μL of freshly prepared MitoSOX solution 2.5 µM at 37 °C for 15 min in the dark. The stained cells were washed with HBSS solution (2 × 1 mL), and the cell pellet was resuspended in 100 μL of PBS and analyzed by flow cytometry using a BD Accuri™ C6 cytometer (San Jose, CA, USA).
as §2

[3] = Photostability under UVA + UVB radiation; type: physicochemical; conditions: for variation in absorbance after irradiation: UVA + UVB, up to 15 min
Protocol: Three independent compound solutions (100 µM) were prepared and exposed to light. A volume of 50 mL of each sample replicate was exposed side-by-side under a UV lamp at a […] distance through an appropriate duration of time. These conditions were monitored using calibrated radiometers. The lamp used as light source for the photostability assay emitted an irradiance of 0.62 mW/cm^2 and 0.74 mW/cm^2 of UVA and UVB light, respectively. A UV lamp (Osram, Ultra-Vitalux, 300 W) was positioned at a height of 54 cm. The UV lamp was turned on 1 h before the experiment, and the UVA and UVB irradiances were measured, maintaining the controlled temperature. At the end of the exposure period, the absorbance spectrum was measured between 200 nm and 800 nm using a UV–vis spectrophotometer. The exposed samples were analyzed concomitantly with protected samples (dark controls). Photostability was evaluated by comparing the UV–vis spectra at each evaluation time for each antioxidant.

[4] = Stability in metal solutions, pH 5 (UV-vis absorbance); type: physicochemical
Protocol: Five independent metal solutions (100 µM) were prepared in a buffer at pH 5, in triplicate. To the compound solutions, a volume of metal solutions was added to a final proportion of 1:1. The stability in the presence of different metals was analyzed at specific time points. The solutions were stored at room temperature in the dark. Aliquots of 3.00 mL were transferred to quartz cuvettes at specific time points to measure their absorbance using UV–vis spectrophotometry. Solutions of each metal were used as blanks.

[5] = compound 500 µM, 1 h pre-incubation, 24 h, mean ± SEM

Compound | anti-allergic profile regarding CD86 ([1]; 500 µM) | pro-oxidant profile [2] | increase of absorbance (hyperchromic effect) ([3]; after 5 min of UV exposure (UVA + UVB)) [%] | loss of absorbance ([4]; pH 5, Cu(II), Fe(II), and Fe(III)) [%] | RFI of CD54 expression, DNFB-induced maturation [1, 5] | mitochondrial antioxidant activity [2] | variation in absorbance after irradiation [3] | loss of absorbance ([4]; pH 5, Fe(III) and Cu(II), at the end of 1 d) [%] | inhibition of DNFB-induced maturation of THP-1 cells ([1]; 500 µM) | RFI of CD86 expression, DNFB-induced maturation [1, 5] | loss of absorbance ([4]; pH 5, Ca(II), Cu(II), and Fe(III), after one day) [%]
O=C1O[C@H]([C@@H](O)CO)C(O)=C1O [AA, Ascorbic acid] | exhibited anti-allergic profile | AA, AAG, and AAGS with no pro-oxidant profile % inhibition of rotenone-induced SO2^− production: AA > AAG > AAGS | ~50 | > 80 | – | – | – | – | – | – | –
O=C1O[C@H]([C@@H](O)CO)C(O)=C1O[C@H]1O[C@H](CO)[C@@H](O)[C@H](O)[C@H]1O [AAG, 2-O-α-D-glucopyranosyl-L-ascorbic acid] | – | AA, AAG, and AAGS with no pro-oxidant profile % inhibition of rotenone-induced SO2^− production: AA > AAG > AAGS | – | – | 995.78% ± 80.51% | did not demonstrate an ability to exert antioxidant activity in mitochondria | slight variation in the absorbance | < 30 | – | – | –
O=C1OC(C(COS(=O)(=O)O)OS(=O)(=O)O)C(OS(=O)(=O)O)=C1OC1OC(COS(=O)(=O)O)C(OS(=O)(=O)O)C(OS(=O)(=O)O)C1OS(=O)(=O)O [AAGS, 2-O-α-D-glucopyranosyl-L-ascorbic acid persulfate] | exhibited anti-allergic profile | non-prooxidant; also recorded: AA, AAG, and AAGS with no pro-oxidant profile % inhibition of rotenone-induced SO2^− production: AA > AAG > AAGS | – | – | 986.89% ± 80.51% | did not demonstrate an ability to exert antioxidant activity in mitochondria | practically imperceptible | – | anti-allergic activity | 168.90% ± 16.30% | > 50
